Data from patent publication US20160058829A1, “ANTI-FIBROTIC PEPTIDES AND THEIR USE IN METHODS FOR TREATING DISEASES AND DISORDERS CHARACTERIZED BY FIBROSIS” (Thrasos Innovation, Inc., priority 2011, published 2016).
Positions of bridges follow the written chain, without caps; N, C: chain ends.

Columns and labels:
[1] = In vitro stability in rat blood, plasma and PBS-mannitol buffer (LC-MS-MS); type: in vitro ADME; conditions: 0.1 mg/mL, 37° C.
Experimental: FIG. 46 In vitro stability of THR-123. THR-123 was spiked into freshly harvested rat blood (male Sprague-Dawley, 0.35 kg BW) and plasma, and PBS-mannitol buffer solution at a final concentration of 0.1 mg/mL. Blood, plasma and buffer master tubes were incubated at 37° C. for up to 6 h and duplicate samples of 500 μl (blood) and 250 μl (plasma and […]) were collected for analysis at 0, 7.5, 15, 30, 60, 120, 240 and 360 min. Samples were analyzed for THR-123 using an LC-MS-MS method having a limit of detection of 1 μg/ml.
The stability of THR-123 in whole blood and plasma was tested in vitro. In PBS-mannitol buffer, THR-123 was stable for over 400 minutes (FIG. 46).

[2] = system: Alk-3 deleted mice and control mice, NTN; test: NTN in Alk-3 deleted (γGT-Cre; Alk3 flox/flox) and control mice; type: in vivo
Experimental: FIG. 76A-FIG. 76T THR-123 acts on tubule Alk3 as a receptor in kidney disease models. FIG. 76A-FIG. 76D, The effect of THR-123 on the IRI model kidney injury in Alk3^flox/flox and […]GTCre; Alk3^flox/flox mice. After ischemia reperfusion injury the mice were given THR-123 orally (5 mg/kg/day) till the day of sacrifice. FIG. 76A-FIG. 76C, the representative H&E staining picture of indicated group of mice are shown. FIG. 76D. Percentage renal tubular necrosis in IRI. Ten fields in each group were analyzed. Data are shown as mean±s.e.m. in the graph. FIG. 76E-FIG. 76T, The effect of THR-123 on the NTN model kidney injury in Alk3^flox/flox and gGTCre; Alk3^flox/flox mice. Six weeks after NTN was introduced in the indicated groups of mice, mice were treated with PBS or THR-123 orally. FIG. 76E-FIG. 76H, the representative MTS staining picture of indicated group of mice are shown. FIG. 76I, Morphometric analyses from 9 weeks of NTN models in indicated groups. FIG. 76J-FIG. 76N, Macrophage accumulation analysis in the kidney of NTN model in Alk3^flox/flox and gGTCre; Alk3^flox/flox mice. FIG. 76J-FIG. 76M, Mac-1 immunofluorescence study of indicated groups of mice. FIG. 76N, The number of macrophages per field of view (×400 magnification) was assessed by counting positively labeled cells in 5 random fields of view per slide, with 5 slides per experimental group. Data are shown as mean±s.e.m. in the graph. FIG. 76O-FIG. 76S, EMT analysis, FIG. 76O-FIG. 76R, E-cadherin/FSP1 immunolabeling of kidney in NTN-induced Alk3^flox/flox and GTCre; Alk3^flox/flox mice treated with either PBS or THR-123. FIG. 76S. Percent of E-cadherin/FSP1 double positive tubule. 500 tubules per slide, 5 slides per experimental group were analyzed. Data are expressed as mean±s.e.m. in the graph. FIG. 76T, Blood urea nitrogen measurement in 6 and 9 weeks of NTN in indicated groups of mice (all n=4).
FIG. 79A-FIG. 79D. Tubule cell apoptosis was analyzed in frozen kidney sections of indicated groups of animals by TUNEL staining. Representative pictures were shown. FIG. 79D. Quantification of TUNEL positive tubule cells. The number of TUNEL positive tubules per field of view (×200 magnification) was assessed by counting positively labeled cells in 5 random fields of view per slide, with 5 slides per experimental group.
Alk-3 flox mice are provided by Dr. Yuji Mishina, National Institutes of Health with material transfer agreements. γGT-Cre mice are provided from Dr. Eric Neilson, Vanderbilt University Medical Center. NTN is induced by the method described above.

Substance: (H)-CYFDDSSNVLCKKYRS-(OH) (H-CYFDDSSNVLCKKYRS-OH; disulfide 1-11; SMILES CC(C)C[C@@H]1NC(=O)[C@H](C(C)C)NC(=O)[C@H](CC(N)=O)NC(=O)[C@H](CO)NC(=O)[C@H](CO)NC(=O)[C@H](CC(=O)O)NC(=O)[C@H](CC(=O)O)NC(=O)[C@H](Cc2ccccc2)NC(=O)[C@H](Cc2ccc(O)cc2)NC(=O)[C@@H](N)CSSC[C@@H](C(=O)N[C@@H](CCCCN)C(=O)N[C@@H](CCCCN)C(=O)N[C@@H](Cc2ccc(O)cc2)C(=O)N[C@@H](CCCNC(=N)N)C(=O)N[C@@H](CO)C(=O)O)NC1=O) [SEQ ID NO: 1]
- half-life in rat plasma [1]: 5.97 h
- half-life in rat whole blood [1]: 1.17 h
- renal function (blood urea nitrogen), NTN ([2]; Alk3-deleted mice): not realized
- EMT program in the tubules, NTN ([2]; Alk3 deleted mice): did not inhibit
- apoptosis, NTN kidney ([2]; Alk3 deleted mice): no effect on apoptosis
- macrophage accumulation in the kidney, NTN ([2]; Alk3 deleted mice): did not inhibit
- renal injury and fibrosis, NTN ([2]; Alk-3 deleted mice): no efficacy
- EMT program in the tubules, NTN ([2]; control mice): inhibition
- macrophage accumulation in the kidney, NTN ([2]; control mice): inhibition
- renal function (blood urea nitrogen), NTN ([2]; control mice): restored renal function
- renal injury and fibrosis, NTN ([2]; control mice): successful in controlling renal injury and fibrosis
- apoptosis, NTN kidney ([2]; wild type kidney): inhibit apoptosis
